Test results: patent publication US20230348453A1, “HALOGENATED-HETEROARYL AND OTHER HETEROCYCLIC KINASE INHIBITORS, AND USES THEREOF” (iOmx Therapeutics AG, priority 2020, published 2023)
Where two headings read alike, the source gives them in different places.

Assays:
SIK3 [1] = molecular target: T1, SIK3 (Homo sapiens (Human), UniProt Q9Y2K2); experiment: SIK3 kinase inhibition (IC50)
SIK3 [2] = molecular target: T1, SIK3; conditions: read-out: SIK3 IC50
SRC (GST-HIS-tag) = SRC (GST-HIS-tag) (Homo sapiens (Human), UniProt P12931); assay type: biochemical
[3] = Human plasma-protein binding; conditions: for recovery at 4 h: human, plasma
[4] = microsomes
in vitro [5] = conditions: human, microsomes
[6] = microsomes; remark: listed apart in the source
[7] = Murine plasma protein binding; conditions: for recovery at 4 h: mouse, plasma
in vitro [8] = conditions: mouse, microsomes
[9] = tested on: MC38 murine tumour cell line; experiment: TNF-sensitised cell viability assay (CellTiter-Glo); conditions: read-out: MC38 IC50 (nM at 100 ng/mL TNF); 100 ng/mL TNF, 72 h
[10] = mouse, in vivo, po, 30 mg/kg
SIK2 = SIK2 (Homo sapiens (Human), UniProt Q9H0K1); experiment: SIK2 kinase inhibition (IC50)
[11] = Screening PK in mice after 30 mg/kg po; conditions: for Cmax at 2 h / concentration at 6 h: mouse, plasma, po, 30 mg/kg
[12] = MDCK wild type permeability/efflux; conditions: dog
MDR1 (P-gp) = MDR1 (P-gp) (Homo sapiens (Human), UniProt P08183); experiment: MDR1-MDCK effective efflux assay; conditions: dog; for Papp: MDCK-MDR1; for efflux ratio: Table 5.1B
[13] = Mouse hepatocyte stability; assay type: in vitro ADME; conditions: hepatocytes; for microsomal CLint: read-out: Mouse hepatocyte stability, Intrinsic clearance
[14] = Human hepatocyte stability; assay type: in vitro ADME; conditions: human, hepatocytes; for half-life: read-out: Human hepatocyte stability, Half-life; for microsomal CLint: read-out: Human hepatocyte stability, Intrinsic clearance
[15] = read-out: Kinase: IC50 (nM) SIK2
[16] = Free plasma concentration after 6 h (nM), mice, 30 mg/kg po, 6 h
[17] = Plasma concentration after 6 h (nM), mice, 30 mg/kg po, 6 h
[18] = MDCK-MDR1, MDCK-MDR1 cells, Mean Efflux Ratio (MDR1)
[19] = MDCK-MDR1, P-gP driven efflux ratio (MDR1/wt)

## Cc1nc(Nc2ncc(C(=O)Nc3c(CF)csc3Cl)s2)cc(N2CCN(C)C(C)C2)n1 (single isomer, unassigned) [Compound E10-Ent-II, N-(2-chloro-4-(fluoromethyl)thiophen-3-yl)-2-((6-(3,4-dimethylpiperazin-1-yl)-2-methylpyrimidin-4-yl)amino)thiazole-5-carboxamide]
SIK3 [1]; separated enantiomers
  IC50 against SIK3 relative to IC50 of E10-Ent-I: approximately half

## Cc1nc(Nc2ncc(C(=O)Nc3c(C)ccnc3C)s2)cc(N2CCN(CCO)CC2)n1 [Compound C1, N-(2,4-dimethylpyridin-3-yl)-2-((6-(4-(2-hydroxyethyl)piperazin-1-yl)-2-methylpyrimidin-4-yl)amino)thiazole-5-carboxamide]
SIK3 [2]
  IC50: 867 nM
SRC (GST-HIS-tag)
  IC50: < 1.5 nM

## Cc1nc(Nc2ncc(C(=O)Nc3c(Br)ccnc3C)s2)cc(N2CCN(CCO)CC2)n1 [Compound C3, N-(4-bromo-2-methylpyridin-3-yl)-2-((6-(4-(2-hydroxyethyl)piperazin-1-yl)-2-methylpyrimidin-4-yl)amino)thiazole-5-carboxamide]
SIK3 [2]
  IC50: 2780 nM

## Cc1nc(Nc2ncc(C(=O)Nc3c(C)cncc3Cl)s2)cc(N2CCN(CCO)CC2)n1 [Compound C4, N-(3-chloro-5-methylpyridin-4-yl)-2-((6-(4-(2-hydroxyethyl)piperazin-1-yl)-2-methylpyrimidin-4-yl)amino)thiazole-5-carboxamide]
[3]; Table 5A
  Human plasma-protein binding, Percentage unbound (%): 2%
[4]
  Mouse liver microsomal stability, Intrinsic clearance (L/min/mg): 38 µL/min/mg
SIK3 [2]
  IC50: 677 nM
SRC (GST-HIS-tag)
  IC50: < 1.5 nM
In vitro [5]
  half-life: 12 min
[6]
  Human liver microsomal stability, Intrinsic clearance: 115 µL/min/mg
[7]; Table 5A
  Murine plasma protein binding, Percentage unbound (%): 14%
In vitro [8]
  half-life: 37 min

## Cc1nc(Nc2ncc(C(=O)Nc3c(C)cncc3C)s2)cc(N2CCN(CCO)CC2)n1 [Compound C5, N-(3,5-dimethylpyridin-4-yl)-2-((6-(4-(2-hydroxyethyl)piperazin-1-yl)-2-methylpyrimidin-4-yl)amino)thiazole-5-carboxamide]
SIK3 [2]
  IC50: 340 nM
SRC (GST-HIS-tag)
  IC50: < 1.5 nM

## Cc1nc(Nc2ncc(C(=O)Nc3cccnc3C)s2)cc(N2CCN(CCO)CC2)n1 [Compound C6, 2-((6-(4-(2-hydroxyethyl)piperazin-1-yl)-2-methylpyrimidin-4-yl)amino)-N-(2-methylpyridin-3-yl)thiazole-5-carboxamide]
SIK3 [2]
  IC50: 987 nM
SRC (GST-HIS-tag)
  IC50: < 1.5 nM

## Cc1nc(NCCO)cc(Nc2ncc(C(=O)Nc3c(Cl)ccnc3C)s2)n1 [Compound C11, N-(4-chloro-2-methylpyridin-3-yl)-2-((6-((2-hydroxyethyl)amino)-2-methylpyrimidin-4-yl)amino)thiazole-5-carboxamide]
SIK3 [2]
  IC50: 1510 nM
SRC (GST-HIS-tag)
  IC50: < 1.5 nM

## Cc1nc(Nc2ncc(C(=O)Nc3c(Cl)csc3C)s2)cc(N2CCN(CCO)CC2)n1 [Compound D1]
[9]
  IC50: < 200 nM
[10]
  Free concentration (nM) at 2 hours: 80 nM
  Free concentration (nM) at 6 hours: 4 nM
  Free concentration (nM) at 12 hours: 2.14 nM

## Cc1nc(Nc2ncc(C(=O)Nc3c(Cl)csc3Cl)s2)cc(N2CCN(CCO)CC2)n1 [Compound D7]
[10]
  Free concentration (nM) at 2 hours: 43 nM
  Free concentration (nM) at 6 hours: 5 nM
  Free concentration (nM) at 12 hours: 1.10 nM

## CC(=O)N1CCN(c2cc(Nc3ncc(C(=O)Nc4c(C)csc4Cl)s3)nc(C)n2)CC1 [Compound D8]
SIK3 [2]
  IC50: ~150 nM

## Cc1nc(Nc2ncc(C(=O)Nc3c(Cl)csc3F)s2)cc(N2CCN(CCO)CC2)n1 [Compound E2, N-(4-chloro-2-fluorothiophen-3-yl)-2-((6-(4-(2-hydroxyethyl)piperazin-1-yl)-2-methylpyrimidin-4-yl)amino)thiazole-5-carboxamide]
SIK3 [1]
  IC50: 50 to 100 nM
SIK2; [15]
  IC50: < 10 nM

## Cc1nc(Nc2ncc(C(=O)Nc3c(CF)csc3Cl)s2)cc(N2CCN(CCO)CC2)n1 [Compound E3, N-(2-chloro-4-(fluoromethyl)thiophen-3-yl)-2-((6-(4-(2-hydroxyethyl)piperazin-1-yl)-2-methylpyrimidin-4-yl)amino)thiazole-5-carboxamide]
[3]; Table 5.1A
  Human plasma-protein binding, Percentage unbound (%): 2%
[3]
  recovery at 4 h: 76%
[11]
  Cmax at 2 h: 889 ng/mL
[11]; [16]
  concentration at 6 h: 3.7 nM
[11]; [17]
  concentration at 6 h: 73 nM
In vitro [5]
  half-life: 16 min
  microsomal CLint: 86 µL/min/mg
[7]; Table 5.1A
  Murine plasma protein binding, Percentage unbound (%): 4%
[7]
  recovery at 4 h: 89%
[12]
  Papp: 7 ×10⁻⁶ cm/s
  efflux ratio: 4.3
SIK3 [1]
  IC50: 20 to 50 nM
In vitro [8]
  half-life: 18 min
  microsomal CLint: 76 µL/min/mg
MDR1 (P-gp)
  Papp: 2 ×10⁻⁶ cm/s
MDR1 (P-gp); [18]
  efflux ratio: 53
MDR1 (P-gp); [19]
  efflux ratio: 12
[13]
  half-life: 63 min
  microsomal CLint: 22 µL/min/mg
SIK2; [15]
  IC50: < 10 nM
[14]
  half-life: 34 min
  microsomal CLint: 41 µL/min/mg

## Cc1nc(Nc2ncc(C(=O)Nc3c(C(F)(F)F)csc3Cl)s2)cc(N2CCN(CCO)CC2)n1 [Compound E5, N-(2-chloro-4-(trifluoromethyl)thiophen-3-yl)-2-((6-(4-(2-hydroxyethyl)piperazin-1-yl)-2-methylpyrimidin-4-yl)amino)thiazole-5-carboxamide]
SIK3 [1]
  IC50: 50 to 100 nM
SIK2
  IC50: 20 to 50 nM

## Cc1nc(Nc2ncc(C(=O)Nc3c(CF)csc3Cl)s2)cc(N2CCCN(C)CC2)n1 [Compound E11, N-(2-chloro-4-(fluoromethyl)thiophen-3-yl)-2-((2-methyl-6-(4-methyl-1,4-diazepan-1-yl)pyrimidin-4-yl)amino)thiazole-5-carboxamide]
[3]; Table 5.1A
  Human plasma-protein binding, Percentage unbound (%): 3%
[3]
  recovery at 4 h: 77%
[11]; mice, 30 mg/kg po, 6 h
  fold improvement of free serum concentration over C7: 2 fold
  fold improvement of total serum concentration over C7: 3.1 fold
[11]
  Cmax at 2 h: 487 ng/mL
[11]; [16]
  concentration at 6 h: 7.7 nM
[11]; [17]
  concentration at 6 h: 219 nM
In vitro [5]
  half-life: 19 min
  microsomal CLint: 72 µL/min/mg
[7]; Table 5.1A
  Murine plasma protein binding, Percentage unbound (%): 1%
[7]
  recovery at 4 h: 98%
[12]
  Papp: 8 ×10⁻⁶ cm/s
  efflux ratio: 2.6
SIK3 [1]
  IC50: 20 to 50 nM
In vitro [8]
  half-life: 21 min
  microsomal CLint: 66 µL/min/mg
MDR1 (P-gp)
  Papp: 3 ×10⁻⁶ cm/s
MDR1 (P-gp); [18]
  efflux ratio: 61
MDR1 (P-gp); [19]
  efflux ratio: 24
[13]
  half-life: 56 min
  microsomal CLint: 25 µL/min/mg
SIK2; [15]
  IC50: < 10 nM
[14]
  half-life: 26 min
  microsomal CLint: 55 µL/min/mg

## Cc1nc(Nc2ncc(C(=O)Nc3c(CF)csc3Cl)s2)cc(N2CCNC(=O)C2)n1 [Compound E12, N-(2-chloro-4-(fluoromethyl)thiophen-3-yl)-2-((2-methyl-6-(3-oxopiperazin-1-yl)pyrimidin-4-yl)amino)thiazole-5-carboxamide]
SIK3 [1]
  IC50: 50 to 100 nM
SIK2; [15]
  IC50: < 20 nM

## Cc1nc(Nc2ncc(C(=O)Nc3c(C(F)F)csc3Cl)s2)cc(N2CCN(C)CC2)n1 [Compound E13, N-(2-chloro-4-(difluoromethyl)thiophen-3-yl)-2-((2-methyl-6-(4-methylpiperazin-1-yl)pyrimidin-4-yl)amino)thiazole-5-carboxamide]
SIK3 [1]; read-out: Kinase: IC50 (nM) SIK3
  IC50: < 20 nM
SIK2; [15]
  IC50: < 10 nM

## Cc1nc(Nc2ncc(C(=O)Nc3c(Cl)csc3F)s2)cc(N2CCN(C)CC2)n1 [Compound E15, N-(4-chloro-2-fluorothiophen-3-yl)-2-((2-methyl-6-(4-methylpiperazin-1-yl)pyrimidin-4-yl)amino)thiazole-5-carboxamide]
SIK3 [1]
  IC50: 20 to 50 nM
SIK2; [15]
  IC50: < 20 nM
